Test results: patent publication US20110152221A1, “PAK1 Agonists and Methods of Use” (THE BOARD OF TRUSTEES OF THE UNIVERSITY OF ILLINOIS, priority 2008, published 2011)

How the values were obtained:
[1] = molecular target: T1, Pak1 purified from cardiac muscle (Bos taurus, UniProt Q08E52); experiment: Pak1 kinase assay (autophosphorylation, [γ32P] ATP, autoradiography); format: biochemical, bovine; settings: for autophosphorylation of Pak1: concentration not given
T1 construct: from tissue; host or cells: bovine ventricle (cardiac) muscle
Description: Preparation of Muscle Sample. Frozen bovine ventricle muscle (200 g) was cut into small pieces and homogenized in a blender containing 1 liter homogenization buffer (50 mM Tris base, 5 mM EDTA, 2 mM EGTA, 1 mM DTT, 0.5 mM benzamidine, 0.1 mM PMSF, pH 7.2). The homogenized muscle sample was centrifuged at 4500 g for 30 minutes. The supernatant fraction was saved and precipitated with ammonium sulfate (NH4)2SO4 at concentration 25% and 50% (w/v). Precipitates formed by (NH4)2SO4 addition between concentration 25% (w/v) and 50% (w/v) were saved and dialyzed against the homogenization buffer. After dialysis, the sample was filtered and lyophilized. For purification of Pak1 from smaller amounts of sample, the tissues or cells were homogenized in mammalian extraction buffer (50 mM Tris, pH 7.5; 150 mM NaCl; 0.1% Nonide P40; Complete Protease inhibitor cocktail tablets [Roche Diagnostics, cat # 11 873 580 001]). The ratio of tissue:buffer was about 1:5 (v/v). The homogenate was centrifuged in a bench-top centrifuge at 4° C. The supernatant fraction was saved for direct application onto the affinity column.
Affinity Chromatography. The column was first washed with 20 ml equilibration buffer (20 mM Tris, pH 7.5; 0.1 M NaCl; 0.1 mM EDTA). Decoy peptide (3 mg) was applied to the column to saturate the matrix with the peptide. The muscle sample (the lyophilized extract) was dissolved in buffer (20 mM Tris, pH 7.5; 0.1 M NaCl; 0.1 mM EDTA) containing protease inhibitor cocktail tablets. The sample was loaded onto the affinity column and then washed with 20 ml washing buffer (20 mM Tris, pH 7.5; 0.1 M NaCl; 0.1 mM EDTA; 0.05% Tween-20). The Pak1 bound to the gel was eluted with equilibration buffer containing HA peptide ([…]) (SEQ ID NO: 2) at 1 mg/ml. HA peptide was removed from the sample by dialysis in buffer containing 20 mM HEPES, 5 mM NaCl, pH 7.2. The bound Pak1 could also be eluted with 5 ml glycine buffer, pH 2.5 (50 mM glycine-HCl; 0.1% Triton X-100; 0.15 M NaCl).
Kinase Assay. Pak1 kinase activity was assayed in the following reaction buffer: 50 mM HEPES, pH 7.3, 10 mM MgCl2, 1 mM DTT, 0.05% Triton X-100) with 10 μCi of [γ32P] ATP (Perkin Elma. [γ-32P]-Adenosine 5′-triphosphate, Specific Activity: 3000 Ci (111TBq)/mmole, 50 mM Tricine (pH 7.6), Concentration: 5 mCi/mL, Catal NEG502H250UC) at 37° C. for 2 h. The kinase reaction was stopped by adding SDS sample buffer followed by boiling for 5 min. In view of reports of sphingosine-1 inducing an increase in Pak1 and Pak2 activity in vitro (Bokoch 1998, p 8137-8144; Roig 2001, p 195-199), the effect of sphingosine and sphingosine-1 phosphate on Pak1 autophosphorylation was also tested (FIG. 3A). The tested agonists (obtained from Calbiochem) included the following: C2 ceramide (N-acetyl-D-erythro-sphingosine), C6 ceramide (N-Hexanoyl-D-erythro-sphingosine) and safingol (Dihydro-L-threo-sphingosine). D-sphingosine (S 6879) and sphingosine 1-phosphate (S 9666) were purchased from Sigma. Sphingosines were dissolved in DMSO. The total reaction volume was 20 μl. DMSO (2 μl) was included in each reaction including the control. Incorporation of 32P from gamma 32P into Pak1 was directly detected by autoradiography after resolve the in vitro reaction products on SDS PAGE. […] When the sphingosine phosphate concentration increased to 100 and 200 μM, there was an increase in Pak1 autophosphorylation. In purified Pak1 sample, a 48 kD Pak1 degradation products can sometimes be detected (FIG. 1A, lane 3). When Pak1 activity increased, phosphorylation of the degradation products increased accordingly (FIG. 3).
Autophosphorylation of Pak1, which correlates with its activity, provided a measure of Pak-1 enzyme function. […] In all the in vitro assays, we used 4 μg of Pak1 protein. The smaller band (˜48 kD) that could be Pak1 degradation products was also phosphorylated. […] The decoy peptide contains Pak1 autophosphorylation sites. […]

heart rate = settings: same or lower dose than used in clinical studies for organ transplantation and multiple sclerosis; cited from earlier work
[2] = test system: cardiac troponin in cardiomyocytes / ventricle myocytes; experiment: Dephosphorylation of cardiac troponin in cardiomyocytes; format: cell-based
Description: FTY720 is a structural analogue of sphingosine-1 and C2/C6-ceramide. […] Therefore, like C2- and C6-ceramides, FTY720 can serve as a β-blocker competitor for ischemic heart diseases including angina and systolic heart failure. The anti-(β) adrenergic effect of FTY720 is through activation of Pak1 in the heart. Our current observation further enforced by our previous work on Pak1 function related to heart diseases. Our studies also indicate that even better drug candidates can be designed or screened by testing their effects on Pak1 activation or inhibition using C2/C6 ceramides and FTY720 as prototypes.

PP2A = settings: Dobrowsky 1993; cited from earlier work
L-type Ca2+ channel = settings: different types of cells; Chik 1999, 2004; cited from earlier work
T-cells = settings: O'Byrne 2000; cited from earlier work
heart = settings: Furuya 2001; Lecour 2006; cited from earlier work
[3] = molecular target: T2, decoy peptide (YNSKKTSNSQKYMSFTDKSA) (amino acids 131-150 of SEQ ID NO: 1)
T2 chain: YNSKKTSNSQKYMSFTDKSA

T1 sequence (Q08E52 whole entry): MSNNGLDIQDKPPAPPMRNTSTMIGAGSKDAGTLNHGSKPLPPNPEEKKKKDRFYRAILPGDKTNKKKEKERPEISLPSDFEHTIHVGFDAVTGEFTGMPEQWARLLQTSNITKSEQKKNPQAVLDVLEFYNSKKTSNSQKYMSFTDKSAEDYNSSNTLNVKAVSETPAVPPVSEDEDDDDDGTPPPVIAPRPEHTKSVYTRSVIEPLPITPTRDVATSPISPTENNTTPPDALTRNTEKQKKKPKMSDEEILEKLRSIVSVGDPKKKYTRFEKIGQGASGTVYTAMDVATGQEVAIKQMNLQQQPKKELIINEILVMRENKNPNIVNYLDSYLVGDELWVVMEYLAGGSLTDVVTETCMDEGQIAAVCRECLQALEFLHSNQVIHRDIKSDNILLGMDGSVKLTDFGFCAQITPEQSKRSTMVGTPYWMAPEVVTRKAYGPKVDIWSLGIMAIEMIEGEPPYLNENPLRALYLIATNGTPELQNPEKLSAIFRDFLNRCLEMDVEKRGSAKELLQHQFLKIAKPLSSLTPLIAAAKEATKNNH

Molecule: CCCCCCCCCCCCCCC[C@H](O)[C@@H](N)CO [saphingol, Dihydro-L-threo-sphingosine]
- autophosphorylation of Pak1 ([1]; 37° C., 2 h): only slightly regulated
- autophosphorylation of Pak1 ([1]; 37° C., 2 h, listed as Saphingosine): small stimulatory effect

Molecule: CCCCCCCCCCCCC/C=C/[C@@H](O)[C@@H](N)COP(=O)(O)O [sphingosine-1 phosphate, sphingosine 1-phosphate]
- effect on autophosphorylation of Pak1 ([1]; at 25 and 50 μM, 37° C., 2 h): no significant effect
- Pak1 autophosphorylation ([1]; at 100 and 200 μM, 37° C., 2 h): increase

Molecule: YNSKKTSNSQKYMSFTDKSA [decoy peptide]
- autophosphorylation of Pak1 ([1]; 37° C., 2 h): slightly inhibited
- total kinase activity in the presence of the decoy peptide ([1]; data not shown): slight increase

Molecule: CCCCCCCCCCCCC/C=C/[C@@H](O)[C@@H](N)CO [D-Sphingosine-1, D-erythro-sphingosine]
- Autophosphorylation of the purified Pak1 ([1]; in the presence of 50 and 100 μM, 37° C., 2 h): increased

Molecule: CCCCCCCCc1ccc(CCC(N)(CO)CO)cc1 [FTY720, fingolimod]
- cardiac effect (heart rate) (heart rate): decrease of heart rate

Molecule: CCCCCCCCCCCCC/C=C/[C@@H](O)[C@H](CO)NC(=O)CCCCC [C6 ceramide, N-Hexanoyl-D-erythro-sphingosine]
- effect activating Pak1 compared with sphingosine-1 [1]: stronger effect than sphingosine-1
- autophosphorylation of Pak1 ([1]; 37° C., 2 h): highly responsive
- dephosphorylation of cardiac troponin in cardiomyocytes [2]: induces dephosphorylation

Molecule: CCCCCCCCCCCCC/C=C/[C@@H](O)[C@H](CO)NC(C)=O [C2 ceramide, N-acetyl-D-erythro-sphingosine]
- effect activating Pak1 compared with sphingosine-1 [1]: stronger effect than sphingosine-1
- autophosphorylation of Pak1 ([1]; 37° C., 2 h): highly responsive
- dephosphorylation of cardiac troponin in cardiomyocytes [2]: induces dephosphorylation
- PP2A activation (PP2A): known activator
- L-type Ca2+ channel activity (L-type Ca2+ channel): depressed
- proliferation of T-cells stimulated by growth signals (T-cells): inhibited proliferation
- pre-conditioning effects in heart (heart): pre-conditioning effects

B1: Pak1 purified from bovine ventricle muscle (p21 activated kinase-1) (protein)
chain: SNNGLDIQDKPPAPPMRNTSTMIGAGSKDAGTLNHGSKPLPPNPEEKKKKDRFYRAILPGDKTNKKKEKERPEISLPSDFEHTIHVGFDAVTGEFTGMPEQWARLLQTSNITKSEQKKNPQAVLDVLEFYNSKKTSNSQKYMSFTDKSAEDYNSSNTLNVKAVSETPAVPPVSEDEDDDDDGTPPPVIAPRPEHTKSVYTRSVIEPLPITPTRDVATSPISPTENNTTPPDALTRNTEKQKKKPKMSDEEILEKLRSIVSVGDPKKKYTRFEKIGQGASGTVYTAMDVATGQEVAIKQMNLQQQPKKELIINEILVMRENKNPNIVNYLDSYLVGDELWVVMEYLAGGSLTDVVTETCMDEGQIAAVCRECLQALEFLHSNQVIHRDIKSDNILLGMDGSVKLTDFGFCAQITPEQSKRSTMVGTPYWMAPEVVTRKAYGPKVDIWSLGIMAIEMIEGEPPYLNENPLRALYLIATNGTPELQNPEKLSAIFRDFLNRCLEMDVEKRGSAKELLQHQFLKIAKPLSSLTPLIAAAKEATKNNH
- autophosphorylation of Pak1 [3]: The decoy peptide slightly inhibited autophosphorylation of Pak1
